# Assay results reported in patent US11622951B2, “Alpha-aminoadipate for treatment of vision loss and restoring sight” (The Schepens Eye Research Institute, Inc., priority 2013, dated 2023).
# How the values were obtained:
# Müller glia = test: Electron microscopy count of Müller cell nuclei in retinal sections; assay type: in vivo, mouse; conditions: 3 days after subretinal injection 1 μg/μl, vs saline-injected group
# Description: Mice were sacrificed 3 days after receiving the injection of α-AA (1 μg/μl) or saline as controls by injection of overdose of ketamine/xylazine followed by cervical dislocation, and the eyeballs were dissected, fixed with Karnovsky's fixative (pH 7.4) for 24 h. The quadrants of the eyes that received subretinal injection were dissected and embedded in Epon-Araldite. Semi-thin sections (1-2 μm) were stained with phenylenediamine phase staining. The sections were examined and photographed with a transmission electron microscope (EM410; Philips; Eindhoven, The Netherlands). Ten randomly selected retinal sections of each eye were photographed at 1900× magnification, and all Müller glial nuclei in the photomicrograph were counted.
# Retinal sections were examined under electron microscopy, in which Müller glia were identified by their characteristic angular nuclei, dense chromatin and dark perinuclear cytoplasm (FIG. 1e-h). […] This was also confirmed by immunolabeling for specific markers of retinal neurons, including photoreceptors (recoverin) and amacrine cells (syntaxin) (FIG. 2).
# [1] = system: rod photoreceptor cell function; test: Scotopic ERG a-wave after retinal progenitor transplantation in Gnat1-/- mice; assay type: in vivo, mouse; conditions: pretreatment plus retinal progenitor cell transplantation, 21 days post transplantation
# Description: At 2 days before transplantation, 2 μl of a solution containing either α-AA (1 μg/μl) or saline (control) was injected unilaterally into the subretinal space of recipient wild-type or Gnat1^−/− mice (>2 months old). The procedure for donor cell preparation was essentially as described by Kinouchi et al, 2003, Nat Neurosci, 6:863-868. Briefly, retinal progenitor cells were isolated from postnatal day 0 (P0) EGFP transgenic mice. Cell suspensions containing approximately 1×10^6 dissociated cells were injected slowly through a glass micropipette into the subretinal space of pretreated recipient mice through the same injection site where either saline or α-AA had been injected 2 days prior.
# At 21 days post transplantation, Gnat1−/− mice that had received either α-AA or saline-pretreatment followed by retinal progenitor cell transplantation were analyzed by full-field ERG. Mice were dark adapted for 12 hours and then anesthetized by intraperitoneal injection of ketamine (62.5 mg/kg) and xylazine (12.5 mg/kg). […] A total of six scans were taken and averaged; the a-wave amplitudes were measured from baseline to the peak in the cornea-negative direction. […] Statistical significance was calculated using the Student's t test or ANOVA. […]
# Muller cells [2] = test: Müller cell proliferation and trans-differentiation in diseased eyes of Rho-/- mice; assay type: in vivo, mouse; conditions: administered directly to the diseased eyes of Rho-/- mice
# From the text: Photoreceptor cell death can be measured or assessed by electroretinography, and a reduction or absence of a-wave and/or b-waves. […] Furthermore, proliferating Muller cells were also shown to be capable of trans-differentiating into retinal progenitor cells (expressing retinal progenitor markers).
# [3] = system: transplanted retinal progenitors; test: Differentiation of transplanted retinal progenitors in pretreated host retina (immunohistochemistry); assay type: in vivo, mouse; conditions: pretreated wild-type hosts, 21 days post transplantation
# Description: Mice were anesthetized by intraperitoneal injection of ketamine (62.5 mg/kg) and xylazine (12.5 mg/kg) and transcardially perfused with phosphate buffered saline (PBS) followed by 4% paraformaldehyde in PBS. Retinal flat-mounts or transverse retinal sections (14 μm) were preblocked with PBS containing 3% bovine serum albumin (Sigma-Aldrich, St. Louis, Mo.) and 0.3% Triton X (Sigma-Aldrich) and incubated, first, with primary antibody overnight, and then with secondary antibody for 1 hour at room temperature. The following antibodies were used: Cy3-conjugated monoclonal antibody against GFAP (1:1000; Sigma), Brn-3b (1:200; Santa Cruz Biotechnology; Santa Cruz, Calif.), mouse anti-rhodopsin (1:4000; Rho1D4), chick anti-cone-opsin (1:300), and Cy-2, Cy-3 or Cy-5-conjugated secondary antibody (Jackson ImmunoResearch; West Grove, Pa.). Assessment of morphological integration were quantified by counting EGFP+ cells located outside of transplanted cell clusters in retinal whole-mounts. Statistical significance was determined by either the two tailed student t test or ANOVA.
# At 2 days before transplantation, 2 μl of a solution containing either α-AA (1 μg/μl) or saline (control) was injected unilaterally into the subretinal space of recipient wild-type or Gnat1^−/− mice (>2 months old). […]
# GFAP = test: Western blot of GFAP expression in injected retinas; assay type: in vivo, mouse
# Description: To determine the effect of α-AA on retinal glial cells, mouse retinas were dissected and homogenized in lysis buffer 3% sodium dodecyl sulfate (Sigma-Aldrich), 0.3 M sucrose (Sigma-Aldrich), 1 mM orthovanadium (Sigma-Aldrich)]. Protein concentrations were determined with a BCA assay (Pierce; Rockford, Ill.). Protein (20 μg) was loaded on a 10% sodium dodecyl sulfate-polyacrylamide gel and transferred to a nitrocellulose membrane. The blot was blocked in 1% bovine serum albumin (Sigma-Aldrich) and 4% dry milk in PBS and probed with primary antibodies against GFAP (1:1000; Chemicon; Temecula, Calif.) and β-actin (Sigma-Aldrich) as loading controls. After incubation with appropriate secondary antibodies conjugated to horseradish peroxidase (Jackson Immunochemicals; West Grove, Pa.), detection was performed with Super Signal West Pico (Pierce). Retinal astrocytes and Müller glia are central to the homeostatic and metabolic support of retinal neurons; whereas, after injury these cells develop glial scar that forms critical barriers to neuron regeneration and integration by retinal progenitor cells. […] Retinal glial morphology was examined by immunolabeling for glial marker GFAP and assessed the level of GFAP expression by Western blot at day 1-7 post injection. Expression of GFAP is widely detected in the normal mouse retinas (FIG. 1a).
# Muller cells [4] = conditions: wild-type mice with normal retinas, Takeda et al. 2009; cited from earlier work
compound,measurement,setting,value
"NC(CCCC(=O)O)C(=O)O (stereo not drawn) [α-AA, alpha-aminoadipate]",reduction in counts of Müller cell nuclei,Müller glia,30%
same,ERG a-wave (rod photoreceptor response),[1],a typical a-wave was detected
same,proliferation of Muller cells,Muller cells [2],resulted in proliferation of Muller cells
same,EGFP+ cells integrated into the ONL cone-opsin positive,[3],12%
same,EGFP+ cells integrated into the ONL positive for rhodopsin,[3],Approximately 80%
same,"GFAP expression, Western blot quantification",GFAP; by day 7 post injection,returned to a control level
same,"GFAP expression, Western blot quantification","GFAP; day 3 post injection, vs normal or saline-injected controls",significant downregulation
same,Muller cell proliferation in the retina,Muller cells [4],can stimulate Muller cell proliferation
